Data published in patent US20110224221A1, “HEMATOPOIETIC PROTECTION AGAINST IONIZING RADIATION USING SELECTIVE CYCLIN-DEPENDENT KINASE 4/6 INHIBITORS” (priority 2008, published 2011).
Entries after “also recorded” stand apart in the source; their conditions may differ.

Assays:
[1] = test system: telomerized human diploid fibroblasts; assay: Comet tail assay after IR; type: cell-based; conditions: 24 hours treatment prior to IR, 0-8 Gy
Experimental: Telomerized human diploid fibroblasts were irradiated and then immobilized. After immobilization, cell nuclei were exposed to an electric field by gel electrophoresis, with fragmented DNA migrating further than undamaged DNA.
Comet tail assay: Cells were seeded and allowed to adhere overnight in a 6 cm culture dish. Cells were then treated for 24 hours with a CDK4/6 inihibitor or dimethyl sulfoxide (DMSO) only. After 24 hours cells were irradiated as described. Cells were then fixed and treated as described in manufacturer instructions for the COMETASSAY™ purchased from Trevigen (Gaithersburg, Md., United States of America). In summary, cells were embedded in agarose, the membranes are permeabilized, DNA is denatured in alkali solution, and the DNA is mobilized using gel electrophoresis. Images of the comet tails were obtained by fluorescent microscopy (see Microscopy) and images were analyzed using CometScore software from TriTek Corp. (Sumerduck, Va., United States of America) at either 10× or 20× magnification.

tHDF cells = assay: Western blot of DNA damage response marker phospho-P53 after IR; type: cell-based, human; conditions: treatment prior to IR; PD0332991 100 nM for 24 hours, 6 Gy
Experimental: FIG. 4A are images of Western blots of a DNA damage response marker (phospho-P53) in telomerized human diploid fibroblast (tHDF) cell lysates 3 hours after or 6 hours after a 6 gray (Gy) dose of ionizing radiation (IR) or following no IR, as indicated above the blot images. […] Actin western blot is shown as a loading control.
FIG. 4B is a bar graph showing the normalized phospho-P53 intensity in the telomerized human diploid fibroblast (tHDF) cells described in FIG. 4A.
Western Blots: Western blots were performed on cell lysates in NP-40 lysis buffer with protease inhibitors (Roche, Basel, Switzerland) and phosphatase inhibitors (Calbiochem, San Diego, Calif., United States of America) as previously described (see Ramsey et al., Cancer Res., 67, 4732-4741), using anti-p53-phospho-Ser15 (Cell Signaling Technology, Beverly, Mass., United States of America), Bax, p21, and actin-HRP (Santa Cruz Biotechnology, Inc., Santa Cruz, Calif., United States of America).

tHDF (HS68) cells = assay: Clonogenic assay after IR, tHDF (HS68); type: cell-based, human; conditions: PD0332991 100 nM, 2BrIC 2 μM, CINK4 6 μM, IR 0-9 Gy
Experimental: FIG. 6A is a set of micrograph images of crystal violet stained cell cultures of cyclin-dependent kinase 4/6 (CDK4/6)-dependent cells (HS68) plated at different cell/well ratios and treated with either dimethyl sulfoxide (DMSO) as a negative control or with the selective CDK4/6 inhibitor 2-bromo-12,13-dihydro-5H-indolo[2,3-a]pyrrolo[3,4]carbazole-5,6-dione (2BrIC) at 2 μM for 24 hours prior to exposure to ionizing radiation at 0, 1.5, 3, 6, or 9 gray (Gy), as indicated.
Data plotted is the area/cell ratio of PD0332991 treated cells to dimethyl sulfoxide (DMSO) treated cells. Error bars show standard error of the mean.
FIG. 9A is a set of micrograph images of cell cultures of cyclin-dependent kinase 4/6 (CDK4/6)-dependent cells (HS68) plated at different cell/well ratios and pretreated with either dimethyl sulfoxide (DMSO) as a control or with the nonselective CDK4/6 inhibitor trans-4-[[6-ethylamino)-2-[[1-phenylmethyl)-1H-indol-5-yl]amino]-4-pyrimidinyl]amino]]-cyclohexanol (CINK4) at 6 μM for 24 hours prior to exposure to ionizing radiation at 0, 1.5, 3, 6, or 9 gray (Gy), as indicated. The plates were stained with crystal violet to visualize cell colonies.
Clonogenic Assay: The clonogenic assay was performed as previously described (see Franken et al., Nature protocols, 1, 2315-1319 (2006)) with cells plated in a six-well plate at least 6 hours prior to treatment with CDK inhibitor for 24 hours, with 6 Gy IR occurring 12 hours after initiation of CDK inhibitor exposure. Cells were grown for 16 days, washed, fixed, and stained with crystal violet. Plates were then imaged using an Odyssey infrared scanner (Li-Cor Biosciences, Lincoln, Nebr., United States of America) and quantified using the accompanying software.

[2] = test system: peripheral blood lineages; assay: Peripheral blood counts after TBI; type: in vivo, mice; conditions: for bone marrow protection: after IR; for protection/recovery of peripheral blood lineages: platelets, erythrocytes, myeloid cells, lymphocytes after IR
Experimental: For comparison, data from mice that had not been exposed to IR is also shown (lightly shaded bars). […] Error bars show standard error of the mean.
Data was prepared from weekly complete blood counts on tail vein bleeds. Asterisk(s) indicate statistical significance determined by a 2-sided t-test. Error bars are +/− the standard error of the mean.
For TBI experiments, mice were irradiated using a ^137Cs source (AECL Gammacell 40 Irradiator, Atomic Energy of Canada Ltd, Mississauga, Ontario, Canada). Delivered doses were at or near the empirically determined LD90 of 7.5 Gy, consistent with prior studies. See Na Nakorn et al., J. Clin. Invest., 109, 1579-1585 (2002); Herodin et al., Blood, 101, 2609-2616 (2003); Uckun et al., Blood, 75, 638-645 (1990); and Wang et al., Proc. Natl. Acad. Sci., USA, 94, 14590-14595 (1997). Peripheral blood was collected using a tail vein nick for complete blood cells (CBCs) and analyzed with a HemaTrue analyzer (Heska Co., Loveland, Colo., United States of America).
The peripheral blood of animals after IR exposure was studied to confirm that the improved survival was due to protection of hematopoietic lineages.

Row | SMILES | DNA damage (comet tails) after IR [1] | DNA damage response (phospho-P53) after IR (tHDF cells) | clonogenic cell survival after IR (area/cell ratio relative to DMSO) (tHDF (HS68) cells) | bone marrow protection [2] | anemia and thrombocytopenia ([2]; lethally irradiated mice (7.5 Gy)) | protection/recovery of peripheral blood lineages [2] | protection/recovery of peripheral blood lineages ([2]; listed as PD 0332991) | blood count nadirs and recovery ([2]; sub-lethal dose of TBI (6.5 Gy))
1 | O=C1NC(=O)c2c1c1c3ccccc3[nH]c1c1[nH]c3cc(Br)ccc3c21 [Compound 2BrIC, 2-bromo-12,13-dihydro-5H-indolo[2,3-a]pyrrolo[3,4]-carbazole-5,6-dione] | attenuated; also recorded: potently reduce comet tail formation | attenuated | enhanced clonogenic cell survival | marked bone marrow protection | – | – | – | –
2 | CC(=O)c1c(C)c2cnc(Nc3ccc(N4CCNCC4)cn3)nc2n(C2CCCC2)c1=O [PD0332991, 6-acetyl-8-cyclopentyl-5-methyl-2-(5-piperazin-1-yl-pyridin-2-ylamino)-8H-pyrido-[2,3-d]-pyrimidin-7-one] | greatly attenuated; also recorded: potently reduce comet tail formation | attenuated | enhanced clonogenic cell survival | marked bone marrow protection | significantly ameliorated | beneficial effect on the recovery of all peripheral blood lineages | protects all lineages of blood cells | diminished count nadirs and caused more rapid count recovery
